Measurements published in US9915650B2, “Method of detection of cAMP and cGMP via a fluorophore and dequencher complex” (HOFFMANN-LA-ROCHE INC., priority 2006, dated 2018).
Where “and” joins values, the source holds several entries; their conditions need not be identical. Identical values can stand only once. Entries after “also recorded” stand apart in the source; their conditions may differ. Like-named read-outs stand apart in the source and are kept apart here.

Legend:
[1] = Quenching of free MR121 fluorescence by cyclic nucleotides and cAMP derivates (Stern-Volmer plot); type: binding; details: for association constant, Ks, with MR121 / quenching of MR121 (decrease of fluorescence intensity, fluorescence lifetime): 20 nM MR121 in PBS, 30 min RT; for association constant, Ks, with MR121: calculated from linear region (up to 3.2 mM) of I0/I plot; for quenching of MR121 (decrease of fluorescence intensity, fluorescence lifetime): quencher 0-12.8 mM; for quenching of MR121 in low concentrations: concentrations up to 10 μM (range of cellular concentrations)
Procedure: The fluorescent intensity was adjusted to about 60% of the maximal signal of the employed iCCD camera by using attenuation filters and varying exposure times.
(§1) Fluorescence and lifetime were measured after an incubation time of 30 minutes at RT.
In order to analyze the quenching mechanism, measurements of fluorescence intensity and fluorescence lifetime of free MR121 as a function of different molecules (Trp, cAMP, 2-AHA-cAMP, 8-AHA-cAMP, 8-ADOA-cAMP, 2′-AEC-cAMP, N-6-Aminohexyl-cAMP, 8-MBT-cAMP and 8-OH-cAMP, see FIG. 4, 5) were carried out.
as §1
In FIG. 5 the change in fluorescence intensity (I0/I) is plotted for all cAMP derivatives investigated.

[2] = Quenching of ATTO655 by 8-AHA-cAMP (Stern-Vollmer plot); type: binding; details: 20 nM ATTO655 in PBS, 30 min RT; linear region (up to 3.2 mM)
Procedure: (§2) All fluorescence intensity measurements were carried out by means of a plate:vision fluorescence reader (Evotec Technologies GmbH, Schnackenburgallee 114, D-22525 Hamburg, Germany) equipped with a high pressure Xe arc lamp using for the measurements with MR121 an excitation filter at 630 nm (bandwidth 50 nm) and an emission filter at 695 nm (bandwidth 55 nm) and for the measurements with Atto 700 an excitation filter at 655 nm (bandwidth 50 nm) and an emission filter at 710 nm (bandwidth 40 nm). The fluorescent intensity was adjusted to about 60% of the maximal signal of the employed iCCD camera by using attenuation filters and varying exposure times. The lifetime measurements were performed by means of a plate:vision TRF reader (Evotec Technologies GmbH, Schnackenburgallee 114, D-22525 Hamburg, Germany) with an OPO system as light source (GWU Lasertechnik Vertriebsgesellschaft m.b.H., 50374 Erftstadt, Germany) tuned to 630 nm for excitation and the emission filter at 695 nm.
(§3) 20 μl ATTO590 and ATTO655 respectively (in PBS, end concentration 20 nM) and 20 μl quencher (8-AHA-cAMP) in PBS (DMSO end concentration in the assay: 1.25%) were pipetted into a microtiter plate. Fluorescence and lifetime were measured after an incubation time of 30 minutes at RT. […] The association constant, Ks, was calculated from the linear region (up to 3.2 mM) of the plot.

[3] = Quenching of ATTO590 by 8-AHA-cAMP (Stern-Vollmer plot); type: binding; details: 20 nM ATTO590 in PBS, 30 min RT; linear region (up to 3.2 mM)
Procedure: as §2, §3

[4] = Solubility seen in the quenching plot (FIG. 5); type: physicochemical; details: above ˜5 mM, PBS, deviation from linearity of I0/I plot
From the text: I0/I: change in fluorescence intensity

[5] = molecular target: anti-cAMP antibody; assay: cAMP/cGMP standard curves: displacement of tracer from anti-cAMP antibody, fluorescence readout; type: binding, mouse
[6] = test system: CHO-K1 cells; assay: cAMP cellular assay, forskolin dose response curve; type: cell-based; details: Cricetulus griseus, 0.5 h; CHO-K1, 10,000 cells/well, 1 mM IBMX, 30 min at 37° C.
Procedure: Cell numbers from 2, 500 to 20, 000 cell/well were plated in 25 μl medium and incubated for 20 h at 37° C. The medium was removed and after adding 10 μl of PBS with 0.1% BSA and 1 mM IBMX the cells were incubated for 60 minutes at 37° C. 10 μl of forskolin dilutions in PBS+0.1% BSA+1 mM IBMX from 0.01 to 300 μM (final concentration in 20 μl assay volume) were added and incubated for another 30 minutes at 37° C.

[7] = literature value for tryptophane; cited from earlier work
[8] = 20 nM MR121-2-AHA-cAMP tracer, 40 nM antibody, without cells (FIG. 14), read-out: IC50, comparison of standard curves for cAMP and cGMP

In the case of NCCCCCCNc1nc(N)c2ncn([C@@H]3O[C@@H]4COP(=O)(O)O[C@H]4[C@H]3O)c2n1 [2-AHA-cAMP, 2-(6-Aminohexyl)amino-cAMP], the “association constant, Ks, with MR121” value [1] is reported as 512 M⁻¹.

With NCCOCCOCCNc1nc2c(N)ncnc2n1[C@@H]1O[C@@H]2COP(=O)(O)O[C@H]2[C@H]1O [8-ADOA-cAMP, 8-(8-Amino-3,6-dioxaoctylamino)-cAMP] the “association constant, Ks, with MR121” value [1] was 475 M⁻¹.

For NCCCCCCNc1nc2c(N)ncnc2n1[C@@H]1O[C@@H]2COP(=O)(O)O[C@H]2[C@H]1O [8-AHA-cAMP, 8-(6-Aminohexyl)amino-cAMP], the “association constant, Ks, with Atto655” value [2] was 347 M⁻¹, the “association constant, Ks, with Atto590” value [3] was 282 M⁻¹ and the solubility [4] was “solubility problems”. The “association constant, Ks, with MR121” value [1] was 514 M⁻¹.

With Nc1ncnc2c1nc(SCCCCS)n2[C@@H]1O[C@@H]2COP(=O)(O)O[C@H]2[C@H]1O [8-MBT-cAMP, 8-(4-Mercaptobutylthio)-cAMP] the “association constant, Ks, with MR121” value [1] was 758 M⁻¹.

In the case of Nc1ncnc2c1[nH]c(=O)n2C1OC2COP(=O)(O)OC2C1O (stereo not shown) [8-OH-cAMP, 8-Hydroxy-cAMP], the “association constant, Ks, with MR121” value [1] is reported as 236 M⁻¹.

For NCCCCCCNc1ncnc2c1ncn2[C@@H]1O[C@@H]2COP(=O)(O)O[C@H]2[C@H]1O [N-6-Aminohexyl-cAMP], the “quenching of MR121 (decrease of fluorescence intensity, fluorescence lifetime)” value [1] was “no quenching at all”.

In the case of Nc1ncnc2c1ncn2[C@@H]1O[C@@H]2COP(=O)(O)O[C@H]2[C@H]1O [cAMP, cyclic adenosine monophosphate], the IC50 ([5]; 5 nM Atto700-2-AHA-cAMP tracer, 5 nM antibody, without cells (FIG. 15), read-out: IC50, dose response curve with Atto700-2-AHA-cAMP tracer) is reported as 48 nM, the IC50 [5, 8] is reported as 134 nM and the IC50 ([5]; 20 nM MR121-2-AHA-cAMP, 40 nM anti-cAMP antibody, 10'000 CHO-K1 cells/well, read-out: IC50, standard curve with cells) is reported as 119 nM and 102 nM. The IC50 ([5]; 20 nM MR121-2-AHA-cAMP, 40 nM anti-cAMP antibody, without cells (FIG. 8), read-out: IC50, standard curve without cells) was 109 nM, the “quenching of MR121 (decrease of fluorescence intensity, fluorescence lifetime)” value [1] was “no quenching at all” and the “quenching of MR121 in low concentrations” value [1] was “neither cAMP nor cGMP quenches MR121; also recorded: neither cAMP nor cGMP quench the fluorophore”.

For Nc1nc2c(ncn2[C@@H]2O[C@@H]3COP(=O)(O)O[C@H]3[C@H]2O)c(=O)[nH]1 [cGMP, cyclic GMP], the IC50 [5, 8] was 387 nM, the “quenching of MR121 (decrease of fluorescence intensity, fluorescence lifetime)” value [1] was “quenches MR121 at higher concentrations” and the “quenching of MR121 in low concentrations” value [1] was “neither cAMP nor cGMP quenches MR121; also recorded: neither cAMP nor cGMP quench the fluorophore”. For the same compound, the “concentration at which the nucleotide has quenching capabilities” value ([1]; fluorophore quenching) was no less than 1 mM.

Compound C=C[C@@]1(C)CC(=O)[C@]2(O)[C@@]3(C)[C@@H](O)CCC(C)(C)[C@@H]3[C@H](O)[C@H](OC(C)=O)[C@@]2(C)O1 [forskolin] has an IC50 [6] of 3700 nM.

For N[C@@H](Cc1c[nH]c2ccccc12)C(=O)O [tryptophane], the “quenching of MR121 (decrease of fluorescence intensity, fluorescence lifetime)” value [1] is listed as “decrease in fluorescence intensity without a change in fluorescence lifetime” and the “association constant Ks with MR121, reported in the literature” value [7] is listed as roughly 220 M⁻¹.
